In ChEMBL document CHEMBL1152408, “Characterization of a Dispiroketal Spirolide Subclass from Alexandrium ostenfeldii” (J Nat Prod, 2009) one finds Activity and LD50 data, which are given here for 6 compounds.

Type in all cases: organism-based
Data set [1] deals with Mus musculus. Nature of the data set: Toxicity in ip dosed mouse assessed as transient hunching up to 2000 ug/kg. As to conditions: in vivo, 2 mg/kg.
Data set [2] concerns Mus musculus. Description: Toxicity in ip dosed mouse assessed as transient lethargy up to 2000 ug/kg. As to conditions: in vivo, 2 mg/kg.
The subject of data set [3] is Mus musculus. Nature of the data set: Toxicity in ip dosed mouse. The conditions noted are these: in vivo.

Regarding `C=C1CCCC2=NC[C@H](C)[C@@H](C)C[C@@]23CCC([C@@H]2C=C(C)C(=O)O2)=C(C)[C@@H]3/C=C(\C)[C@@H](O)C[C@H]2O[C@@]3(C[C@H]2C)O[C@@H](CC[C@@]3(C)O)C1` [Spirolide H], the Activity result in the data set on Mus musculus [1] and with Mus musculus [2] was “Non-toxic” throughout.
By LD50 is commonly meant the dose at which mortality reaches 50%. Higher therefore signals a less toxic substance. In the data set on Mus musculus [3], `C=C1CCCC2=NC[C@H](C)[C@@H](C)C[C@@]23CCC([C@@H]2C=C(C)C(=O)O2)=C(C)[C@@H]3/C=C(\C)[C@@H](O)C[C@@H]2CC[C@@]3(CC[C@@]4(O[C@@H](CC[C@@]4(C)O)C1)O3)O2` gave an LD50 of 6.9 µg/kg.
As to `C=C1CCCC2=NC[C@H](C)CC[C@@]23CCC([C@@H]2C=C(C)C(=O)O2)=C(C)[C@@H]3/C=C(\C)[C@@H](O)C[C@H]2O[C@]3(CC[C@@]4(O[C@@H](CC[C@@]4(C)O)C1)O3)C[C@H]2C` [SPIROLIDE A], in the data set with Mus musculus [3], the LD50 stood at 6.9 µg/kg.
In the data set with Mus musculus [3], `C=C1CCCC2=NC[C@H](C)[C@@H](C)C[C@@]23CCC([C@@H]2C=C(C)C(=O)O2)=C(C)[C@@H]3/C=C(\C)[C@@H](O)C[C@H]2O[C@]3(CC[C@@]4(O[C@@H](CC[C@@]4(C)O)C1)O3)C[C@H]2C` [SPIROLIDE C] registered an LD50 of 6.9 µg/kg.
The same measure, in the same setting: the value for `C=C1CCCC2=NC[C@H](C)[C@@H](C)C[C@@]23CCC([C@@H]2C=C(C)C(=O)O2)=C(C)[C@@H]3/C=C(\C)CC[C@@H]2CC[C@]3(COC[C@]4(O[C@H]1CC[C@@]4(C)O)[C@@H]3O)O2` was 6.9 µg/kg; that for `C=C1CCCC2=NC[C@H](C)CC[C@@]23CCC([C@@H]2CC(C)C(=O)O2)=C(C)[C@@H]3/C=C(\C)[C@@H](O)C[C@H]2O[C@]3(CC[C@@]4(O[C@@H](CC[C@@]4(C)O)C1)O3)C[C@H]2C` (some centres not stated) [SPIROLIDE B] was 6.9 µg/kg.
